Experimental data from patent publication EP4792811A1, “S1PR4 REGULATOR COMPOUND FOR MUSCLE DISEASE TREATMENT AND APPLICATION THEREOF” (Shengyuan Zetong (Shanghai) Pharmaceutical Co., Ltd, priority 2023, dated 2025).

What was measured:
S1PR4 = target: T1, S1PR4 (Homo sapiens, UniProt O95977); assay: S1PR4 internalization function test in S1PR4-293T cells; format: cell-based; details: 1 µM, 37 °C, 1.5 hours; detected immediately, or at 5 hours or 20 hours after treatment
T1 construct: expressed in transfected cells; host or cells: 293T
T1 sequence (O95977 1-384): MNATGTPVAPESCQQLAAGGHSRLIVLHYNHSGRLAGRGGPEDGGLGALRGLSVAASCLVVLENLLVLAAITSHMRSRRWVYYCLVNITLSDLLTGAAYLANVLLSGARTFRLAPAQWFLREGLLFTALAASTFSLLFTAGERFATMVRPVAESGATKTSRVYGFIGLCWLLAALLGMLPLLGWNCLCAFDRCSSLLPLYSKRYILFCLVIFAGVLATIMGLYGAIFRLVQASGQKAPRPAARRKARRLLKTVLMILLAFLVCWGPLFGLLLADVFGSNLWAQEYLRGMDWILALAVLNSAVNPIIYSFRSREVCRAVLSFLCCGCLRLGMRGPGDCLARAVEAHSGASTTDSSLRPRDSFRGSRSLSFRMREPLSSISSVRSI
Protocol: Therefore, the recovery degree of S1PR4 after internalization caused by Compound 30 was evaluated, and the recovery effect following receptor internalization caused by Compound 30 was assessed in cells with high S1PR4 expression.

[1] = system: Duchenne muscular dystrophy model mice; assay: In vivo pharmacodynamic test in Duchenne muscular dystrophy model mice (Compound 30); details: for serum creatine kinase level: after treatment
Protocol: Experimental Animals: A total of 35 Duchenne muscular dystrophy model mice were divided into 6 groups as shown below.
Intragastric administration was initiated from Day 0. Body weight was measured daily during the experiment to adjust the drug dosage. Grip strength tests were performed every 2 days to observe changes in the mice's grip strength until the experiment concluded on Day 21. Changes in the limb grip strength, serum creatine kinase content, and muscle fibrosis/inflammation in the mice were detected as indicators for evaluating drug efficacy.
The mouse was placed horizontally on the grip test board. The mouse's tail was held and pulled gently in the opposite direction without using excessive force. The tail was gradually pulled until the mouse released the grip force sensor. The maximum value recorded by the grip force sensor is the grip strength. The test was repeated for 3 times and the average value was taken.
After the completion of administration, blood was collected via the orbital sinus, allowed to stand for 30 minutes, centrifuged at 3000 rpm at 4°C for 15 minutes, and serum was extracted, stored frozen at -20°C, and detected in accordance with the kit instructions.
After the experiment, the tibialis anterior, extensor digitorum longus, and diaphragm of the mice were harvested, fixed, sectioned, and subjected to HE staining and Sirius Red staining to observe the degree of muscle fibrosis. The slice was subjected to immunofluorescence staining with F4/80 to observe the level of muscle inflammation.

S1PR2 = target: T2, S1PR2 (Homo sapiens, UniProt O95136); assay: FLIPR assay, S1PR2-CHO cell line; format: cell-based
T2 construct: expressed in transfected cells; host or cells: CHO
Protocol: (§1) ^a β-arrestin recruitment activity based on Tango-S1PR1-CHO-K1 and Tango-S1PR4-CHO-K1 cells, expressed as mean EC50 values ± SD. ^b FLIPR assays were performed using S1PR2-CHO and S1PR5-CHO cell lines, expressed as mean EC50 values ± SD. ^c β-arrestin recruitment activity based on PathHunter CHO-K1-S1PR3 cells, expressed as mean EC50 values ± SD. Data are the mean of at least two independent determinations, reported as mean ± SD (standard deviation).

S1PR3 = target: T3, S1PR3 (Homo sapiens, UniProt Q99500); assay: β-arrestin recruitment, PathHunter CHO-K1-S1PR3 cells; format: cell-based
T3 construct: expressed in transfected cells; host or cells: PathHunter CHO-K1
Protocol: as §1

[2] = 0.3 mg/kg intragastric once daily
[3] = 0.3 mg/kg intragastric once daily, compared with the model group
[4] = 1 mg/kg intragastric once daily
[5] = 3 mg/kg intragastric once daily
[6] = compared with the endogenous ligand S1P

T3 sequence (Q99500 whole entry): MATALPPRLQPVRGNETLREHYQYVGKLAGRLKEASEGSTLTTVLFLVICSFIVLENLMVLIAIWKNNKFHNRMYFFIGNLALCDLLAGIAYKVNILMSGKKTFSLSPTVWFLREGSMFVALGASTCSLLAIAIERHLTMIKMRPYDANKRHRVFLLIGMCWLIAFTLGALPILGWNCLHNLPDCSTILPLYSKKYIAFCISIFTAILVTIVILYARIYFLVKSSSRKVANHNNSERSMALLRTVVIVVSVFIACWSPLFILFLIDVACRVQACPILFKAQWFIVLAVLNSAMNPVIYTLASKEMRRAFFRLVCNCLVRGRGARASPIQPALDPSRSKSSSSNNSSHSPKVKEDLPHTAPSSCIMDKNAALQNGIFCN
T2 sequence (O95136 whole entry, species assumed): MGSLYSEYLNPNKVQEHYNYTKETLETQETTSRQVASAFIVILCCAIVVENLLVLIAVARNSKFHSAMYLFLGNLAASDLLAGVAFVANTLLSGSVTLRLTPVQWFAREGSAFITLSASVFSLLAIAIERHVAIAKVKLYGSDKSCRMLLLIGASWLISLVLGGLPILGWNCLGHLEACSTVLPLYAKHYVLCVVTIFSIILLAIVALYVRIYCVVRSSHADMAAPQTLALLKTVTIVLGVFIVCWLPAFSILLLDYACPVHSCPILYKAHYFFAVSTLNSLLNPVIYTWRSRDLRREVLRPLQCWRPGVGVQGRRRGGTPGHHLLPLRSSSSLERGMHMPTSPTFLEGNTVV

CCc1cc(/C(C)=N/OCc2ccc(-c3ccccc3)c(C)c2)ccc1CN1CC[C@H](C(=O)O)C1 [Compound 30]
S1PR4 internalization (expression of S1PR4 receptor on the cell surface) (S1PR4): sustained internalization capacity | collagen deposition (collagen area ratio) [1, 2]: significantly reduced collagen deposition | serum creatine kinase level [1, 2]: significantly reduced | body weight growth trend [1, 3]: no difference | number of centrally nucleated fibers (HE staining) [1, 3]: no significant difference | collagen deposition (collagen area ratio) [1, 4]: significantly reduced collagen deposition | macrophage content (F4/80 immunofluorescence, muscle inflammation) [1, 4]: significantly reduced macrophage content | number of centrally nucleated fibers (HE staining) [1, 4]: significantly reduced | serum creatine kinase level [1, 4]: significantly reduced | body weight growth trend ([1]; 1 mg/kg intragastric once daily, compared with the model group): no difference | collagen deposition (collagen area ratio) [1, 5]: significantly reduced collagen deposition | macrophage content (F4/80 immunofluorescence, muscle inflammation) [1, 5]: significantly reduced macrophage content | number of centrally nucleated fibers (HE staining) [1, 5]: significantly reduced | serum creatine kinase level [1, 5]: significantly reduced | body weight growth trend ([1]; 3 mg/kg intragastric once daily, compared with the other groups): relatively slow | increase in grip strength (ratio of grip strength to body weight) ([1]; 3 mg/kg intragastric once daily, first 14 days): most significant | agonist activity on S1PR2 (S1PR2; [6]): no agonist activity | Emax (S1PR2; selectivity table, FLIPR, S1PR2-CHO): -6.9% | agonist activity on S1PR3 (S1PR3; [6]): no agonist activity | Emax (S1PR3; selectivity table, PathHunter CHO-K1-S1PR3): 2.25%
